Measured values as given in US20260226086A1, “COMPOUNDS AND COMPOSITIONS AS STAT3 DEGRADERS AND USES THEREOF” (REGENTS OF THE UNIVERSITY OF MICHIGAN, priority 2023, published 2026).

Legend:
Assay type in all cases: cell-based
SUP-M2 cells = assay: CellTiter-Glo 2.0 cell viability assay, SUP-M2; settings: SUP-M2, 96 h, 4 days
How it was run: (§1)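 1000 cells per well exposed to serially diluted compounds for 4 days at 37 °C, 5% CO2. Viability measured by CellTiter-Glo 2.0 luminescence versus untreated cells; IC50 from four-parameter nonlinear fit of triplicate means.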

STAT3 = target: T1, STAT3 (Homo sapiens, UniProt P40763); assay: HiBiT assay, STAT3 degradation in STAT3-HiBiT KI HeLa cells; settings: 24 h; for DC50: read-out: STAT3 Degradation (HeLa 24 h HiBit) DC50
T1 construct: This cell line is a clone created by using CRISPR-Cas9 to fuse HiBiT to the 3′ end of STAT3 in HeLa cells; host or cells: STAT3-HiBiT KI HeLa cell line (CRISPR-Cas9 knock-in clone)
T1 sequence (P40763 whole entry): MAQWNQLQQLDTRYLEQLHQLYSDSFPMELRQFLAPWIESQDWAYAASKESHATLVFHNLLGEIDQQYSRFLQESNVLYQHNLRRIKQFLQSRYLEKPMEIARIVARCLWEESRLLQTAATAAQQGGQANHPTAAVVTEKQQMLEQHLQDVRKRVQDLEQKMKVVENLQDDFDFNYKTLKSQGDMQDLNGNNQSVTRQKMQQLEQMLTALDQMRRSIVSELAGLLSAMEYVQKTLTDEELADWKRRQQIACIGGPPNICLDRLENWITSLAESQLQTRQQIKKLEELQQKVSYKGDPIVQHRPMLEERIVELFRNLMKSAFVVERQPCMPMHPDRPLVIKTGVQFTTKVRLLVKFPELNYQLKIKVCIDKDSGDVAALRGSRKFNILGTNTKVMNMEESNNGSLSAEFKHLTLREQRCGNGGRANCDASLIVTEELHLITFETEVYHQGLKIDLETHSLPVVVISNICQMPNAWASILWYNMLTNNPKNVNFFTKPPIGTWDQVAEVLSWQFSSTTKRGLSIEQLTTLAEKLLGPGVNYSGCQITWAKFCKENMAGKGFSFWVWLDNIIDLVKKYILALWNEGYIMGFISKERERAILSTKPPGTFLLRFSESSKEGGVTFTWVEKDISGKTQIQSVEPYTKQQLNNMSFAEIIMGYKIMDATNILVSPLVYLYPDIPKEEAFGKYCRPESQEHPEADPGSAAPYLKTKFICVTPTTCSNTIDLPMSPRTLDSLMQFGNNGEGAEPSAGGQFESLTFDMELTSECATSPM
How it was run: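 HeLa cells with CRISPR knock-in of HiBiT at the STAT3 C-terminus, 20000 cells/well, treated with serial compound dilutions for 24 h at 37 °C, 5% CO2. Remaining STAT3 read by Nano-Glo HiBiT lytic luminescence versus untreated cells; IC50 from four-parameter nonlinear fit of triplicate means.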

SU-DHL-1 cells = assay: CellTiter-Glo 2.0 cell viability assay, SU-DHL-1; settings: Homo sapiens, 96 h, 4 days
How it was run: as §1

Row | SMILES | IC50 (SUP-M2 cells) | DC50 (STAT3) | IC50 (SU-DHL-1 cells) | Dmax at 1 µM (STAT3; @1 μM)
1 | Cc1ncsc1-c1ccc([C@H](C)NC(=O)[C@@H]2C[C@@H](O)CN2C(=O)[C@@H](NC(=O)CCCCCC(=O)N2CC[C@H]3CC[C@@H](C(=O)N[C@@H](CCC(N)=O)C(=O)NC(c4ccccc4)c4ccccc4)N3C(=O)[C@@H](NC(=O)c3cc4cc(C(=O)P(=O)(O)O)ccc4[nH]3)C2)C(C)(C)C)cc1 [Compound 50, (2-(((5S,8S,10aR)-8-(((S)-5-amino-1-(benzhydrylamino)-1,5-dioxopentan-2-yl)carbamoyl)-3-(7-(((S)-1-((2S,4R)-4-hydroxy-2-(((S)-1-(4-(4-methylthiazol-5-yl)phenyl)ethyl)carbamoyl)pyrrolidin-1-yl)-3,3-dimethyl-1-oxobutan-2-yl)amino)-7-oxoheptanoyl)-6-oxodecahydropyrrolo[1,2-a][1,5]diazocin-5-yl)carbamoyl)-1H-indole-5-carbonyl)phosphonic acid] | 10 to 100 nM | 100 to 1000 nM | 10 to 100 nM | 
2 | Cc1ncsc1-c1ccc([C@H](C)NC(=O)[C@@H]2C[C@@H](O)CN2C(=O)[C@@H](NC(=O)CCCCC(=O)N2CC[C@H]3CC[C@@H](C(=O)N[C@@H](CCC(N)=O)C(=O)NC(c4ccccc4)c4ccccc4)N3C(=O)[C@@H](NC(=O)c3cc4cc(C(=O)P(=O)(O)O)ccc4[nH]3)C2)C(C)(C)C)cc1 [Compound 49, (2-(((5S,8S,10aR)-8-(((S)-5-amino-1-(benzhydrylamino)-1,5-dioxopentan-2-yl)carbamoyl)-3-(6-(((S)-1-((2S,4R)-4-hydroxy-2-(((S)-1-(4-(4-methylthiazol-5-yl)phenyl)ethyl)carbamoyl)pyrrolidin-1-yl)-3,3-dimethyl-1-oxobutan-2-yl)amino)-6-oxohexanoyl)-6-oxodecahydropyrrolo[1,2-a][1,5]diazocin-5-yl)carbamoyl)-1H-indole-5-carbonyl)phosphonic acid] | 10 to 100 nM | 10 to 100 nM | 10 to 100 nM | 
3 | CCS(=O)(=O)c1ccc(CNC(=O)[C@H](CCC(N)=O)NC(=O)[C@@H]2CC[C@@H]3CCN(C(=O)[C@H]4CC[C@H](c5cn([C@H](C(=O)N6C[C@H](O)C[C@H]6C(=O)N[C@@H](C)c6ccc(-c7scnc7C)cc6)C(C)(C)C)nn5)CC4)C[C@H](NC(=O)c4cc5cc(C(=O)P(=O)(O)O)ccc5[nH]4)C(=O)N32)cc1 [Compound 18, (2-(((5S,8S,10aR)-8-(((S)-5-amino-1-((4-(ethylsulfonyl)benzyl)amino)-1,5-dioxopentan-2-yl)carbamoyl)-3-((1S,4S)-4-(1-((S)-1-((2S,4R)-4-hydroxy-2-(((S)-1-(4-(4-methylthiazol-5-yl)phenyl)ethyl)carbamoyl)pyrrolidin-1-yl)-3,3-dimethyl-1-oxobutan-2-yl)-1H-1,2,3-triazol-4-yl)cyclohexane-1-carbonyl)-6-oxodecahydropyrrolo[1,2-a][1,5]diazocin-5-yl)carbamoyl)-1H-indole-5-carbonyl)phosphonic acid] | 100 to 1000 nM | 10 to 100 nM | 10 to 100 nM | > 80%
4 | Cc1ncsc1-c1ccc([C@H](C)NC(=O)[C@@H]2C[C@@H](O)CN2C(=O)[C@@H](n2cc(CCCCCCCC(=O)N3CC[C@H]4CC[C@@H](C(=O)N[C@@H](CCC(N)=O)C(=O)NC(c5ccccc5)c5ccccc5)N4C(=O)[C@@H](NC(=O)c4cc5cc(C(=O)P(=O)(O)O)ccc5[nH]4)C3)nn2)C(C)(C)C)cc1 [Compound 60, (2-(((5S,8S,10aR)-8-(((S)-5-amino-1-(benzhydrylamino)-1,5-dioxopentan-2-yl)carbamoyl)-3-(8-(1-((S)-1-((2S,4R)-4-hydroxy-2-(((S)-1-(4-(4-methylthiazol-5-yl)phenyl)ethyl)carbamoyl)pyrrolidin-1-yl)-3,3-dimethyl-1-oxobutan-2-yl)-1H-1,2,3-triazol-4-yl)octanoyl)-6-oxodecahydropyrrolo[1,2-a][1,5]diazocin-5-yl)carbamoyl)-1H-indole-5-carbonyl)phosphonic acid] | > 1000 nM | > 1000 nM | > 1000 nM | 
